Measured values reported in patent publication US20240246967A1, “AXL COMPOUNDS” (ARCUS BIOSCIENCES, INC., priority 2021, published 2024).

Assays:
Axl [1] = target: T1, Axl (Homo sapiens, UniProt P30530); assay: HTRF KinEASE-TK biochemical potency assay, AXL; set-up: purchased Invitrogen; conditions: 5 nM AXL, 700 μM ATP, 800 nM TK Substrate-biotin
T1 sequence (P30530 26-894): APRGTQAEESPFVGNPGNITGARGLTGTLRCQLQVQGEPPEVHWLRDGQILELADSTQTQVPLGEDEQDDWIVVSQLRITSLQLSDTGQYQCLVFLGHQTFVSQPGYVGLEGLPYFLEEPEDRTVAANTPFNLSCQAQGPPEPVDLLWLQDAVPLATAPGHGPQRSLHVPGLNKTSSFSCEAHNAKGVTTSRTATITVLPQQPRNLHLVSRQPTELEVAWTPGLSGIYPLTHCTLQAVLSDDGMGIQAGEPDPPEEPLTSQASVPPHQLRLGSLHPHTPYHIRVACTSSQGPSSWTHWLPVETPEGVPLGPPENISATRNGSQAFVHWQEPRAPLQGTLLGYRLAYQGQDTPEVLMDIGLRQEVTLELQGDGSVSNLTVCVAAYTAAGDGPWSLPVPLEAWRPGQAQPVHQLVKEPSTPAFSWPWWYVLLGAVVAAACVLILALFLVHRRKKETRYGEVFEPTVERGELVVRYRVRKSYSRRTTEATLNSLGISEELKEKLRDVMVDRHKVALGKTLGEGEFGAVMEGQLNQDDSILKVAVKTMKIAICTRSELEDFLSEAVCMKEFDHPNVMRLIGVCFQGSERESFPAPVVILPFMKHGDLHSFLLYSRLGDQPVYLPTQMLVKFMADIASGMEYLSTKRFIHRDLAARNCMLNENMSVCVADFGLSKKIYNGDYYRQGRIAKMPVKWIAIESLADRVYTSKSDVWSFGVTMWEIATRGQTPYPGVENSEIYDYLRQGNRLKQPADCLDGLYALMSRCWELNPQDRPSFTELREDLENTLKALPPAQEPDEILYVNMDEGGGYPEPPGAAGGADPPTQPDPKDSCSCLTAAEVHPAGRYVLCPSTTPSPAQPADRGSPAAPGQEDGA
How it was run: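 Enzyme (final 5 nM AXL; 1 nM TYRO3 or MER) plus compound, 1 h RT → add biotinylated TK substrate (800 nM final) and ATP (700 μM final) → 2 h RT → stop into HTRF detection mix → read 665/620 nm. Activity normalised to DMSO and pre-stopped blanks.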

Axl [2] = target: T1, Axl; assay: Axl NanoBRET intracellular kinase assay (intracellular binding, Cell Binding); set-up: host or cells: HEK-293; conditions: HEK-293 cells transfected with Axl-NanoLuc fusion vector; 0.35 μM K-5 NanoBRET tracer
How it was run: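 BRET ratio (610 nm/450 nm) decrease from K-5 tracer displacement gave binding; IC50 by 4-parameter non-linear regression of percent activity. Live HEK-293 cells expressed transiently transfected Axl-NanoLuc. Compound 1 h, then 0.35 μM tracer 2 h, both 37 °C, 5% CO2.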

| Compound | IC50 (Axl [1]) | IC50 (Axl [2]) |
| --- | --- | --- |
| C[C@@H]1CCCN1C1(C)CCc2ccc(-c3cnc4[nH]nc(-c5cnc(C(C)(C)O)c(Cl)c5)c4c3)cc2CC1 (stereo partly drawn) [Example 98, 2-[3-Chloro-5-(5-{7-methyl-7-[(2R)-2-methylpyrrolidin-1-yl]-6,7,8,9-tetrahydro-5H-benzo[7]annulen-2-yl}-1H-pyrazolo[3,4-b]pyridin-3-yl)pyridin-2-yl]propan-2-ol] | < 0.1 µM | 0.1 to 1 µM |
| C[C@@H]1CCCN1C1CCc2ccc(-c3cnc4[nH]nc(-c5ccc(C(C)(C)O)c(C(F)(F)F)c5)c4c3)cc2CC1 (stereo partly drawn) [Example 20, 2-[4-(5-{7-[(2R)-2-Methylpyrrolidin-1-yl]-6,7,8,9-tetrahydro-5H-benzo[7]annulen-2-yl}-1H-pyrazolo[3,4-b]pyridin-3-yl)-2-(trifluoromethyl)phenyl]propan-2-ol] | < 0.1 µM | < 0.1 µM |
| Cc1cc(-c2n[nH]c3ncc(-c4ccc5c(c4)CCN(C(=O)C(C)C)CC5)cc23)ccc1C(=O)N1CCNCC1 [Example 48, 2-Methyl-1-(7-{3-[3-methyl-4-(piperazine-1-carbonyl)phenyl]-1H-pyrazolo[3,4-b]pyridin-5-yl}-2,3,4,5-tetrahydro-1H-3-benzazepin-3-yl)propan-1-one] | < 0.1 µM | 0.1 to 1 µM |
| O=S(=O)(c1ccc(-c2n[nH]c3ncc(-c4ccc5c(c4)CCN(CC4CCOC4)CC5)cc23)cc1)C1CC1 (stereo not shown) [Example 27, 7-{3-[4-(Cyclopropanesulfonyl)phenyl]-1H-pyrazolo[3,4-b]pyridin-5-yl}-3-[(oxolan-3-yl)methyl]-2,3,4,5-tetrahydro-1H-3-benzazepine] | < 0.1 µM | 0.1 to 1 µM |
| C[C@@H]1CCCN1C1(C)CCc2ccc(-c3cnc4[nH]nc(-c5ccc(C(N)=O)cc5)c4c3)cc2CC1 (stereo partly drawn) [Example 54, 4-(5-(7-Methyl-7-((R)-2-methylpyrrolidin-1-yl)-6,7,8,9-tetrahydro-5H-benzo[7]annulen-2-yl)-1H-pyrazolo[3,4-b]pyridin-3-yl)benzamide] | < 0.1 µM | < 0.1 µM |
| CC(C)(O)c1ccc(-c2n[nH]c3ncc(-c4ccc5c(n4)CCC(N4CCCC4)CC5)cc23)cc1Cl (stereo not shown) [Example 60, 2-(2-Chloro-4-{5-[7-(pyrrolidin-1-yl)-5H,6H,7H,8H,9H-cyclohepta[b]pyridin-2-yl]-1H-pyrazolo[3,4-b]pyridin-3-yl}phenyl)propan-2-ol] | 0.1 to 1 µM | > 1 µM |
| C[C@@H]1CCCN1C1(C)CCc2ccc(-c3cnc4[nH]nc(-c5ccc(S(=O)(=O)C6CC6)c(F)c5)c4c3)cc2CC1 (stereo partly drawn) [Example 25, (2R)-1-(2-{3-[4-(Cyclopropanesulfonyl)-3-fluorophenyl]-1H-pyrazolo[3,4-b]pyridin-5-yl}-7-methyl-6,7,8,9-tetrahydro-5H-benzo[7]annulen-7-yl)-2-methylpyrrolidine] | < 0.1 µM | < 0.1 µM |
| O=S(=O)(c1ccc(-c2n[nH]c3ncc(-c4ccc5c(c4)CC[C@@H](N4CCCC4)CC5)cc23)cc1)C1CC1 [Example 40, (S)-3-(4-(Cyclopropylsulfonyl)phenyl)-5-(7-(pyrrolidin-1-yl)-6,7,8,9-tetrahydro-5H-benzo[7]annulen-2-yl)-1H-pyrazolo[3,4-b]pyridine] | < 0.1 µM | < 0.1 µM |
| C[C@@H]1CCCN1C1CCc2ccc(-c3cnc4[nH]nc(-c5ccc(S(=O)(=O)C6CC6)cc5)c4c3)cc2C(C)(C)C1 (stereo partly drawn) [Example 109, (2R)-1-(2-{3-[4-(Cyclopropanesulfonyl)phenyl]-1H-pyrazolo[3,4-b]pyridin-5-yl}-9,9-dimethyl-6,7,8,9-tetrahydro-5H-benzo[7]annulen-7-yl)-2-methylpyrrolidine] | < 0.1 µM | < 0.1 µM |
| COCCS(=O)(=O)c1ccc(-c2n[nH]c3ncc(-c4ccc5c(c4)CCC(C)(N4CCC[C@H]4C)CC5)cc23)cc1 (stereo partly drawn) [Example 111, (2R)-1-(2-{3-[4-(2-Methoxyethanesulfonyl)phenyl]-1H-pyrazolo[3,4-b]pyridin-5-yl}-7-methyl-6,7,8,9-tetrahydro-5H-benzo[7]annulen-7-yl)-2-methylpyrrolidine] | < 0.1 µM | < 0.1 µM |

Other lines, results leading:

| IC50 (Axl [1]) | IC50 (Axl [2]) | Compound |
| --- | --- | --- |
| < 0.1 µM | < 0.1 µM | Cc1cc(-c2n[nH]c3ncc(-c4ccc5c(c4)CCC(N4CCCC4)CC5)cc23)ccc1C(=O)N1CCNCC1 (stereo not shown) [Example 47, 1-(2-Methyl-4-{5-[7-(pyrrolidin-1-yl)-6,7,8,9-tetrahydro-5H-benzo[7]annulen-2-yl]-1H-pyrazolo[3,4-b]pyridin-3-yl}benzoyl)piperazine] |
| < 0.1 µM | 0.1 to 1 µM | CS(=O)(=O)c1ccc(-c2n[nH]c3ncc(-c4ccc5c(c4)CCN(C4CCCC4)CC5)cc23)cc1F [Example 32, 3-Cyclopentyl-7-(3-(3-fluoro-4-(methylsulfonyl)phenyl)-1H-pyrazolo[3,4-b]pyridin-5-yl)-2,3,4,5-tetrahydro-1H-benzo[d]azepine] |
| < 0.1 µM | 0.1 to 1 µM | CC(C)(O)c1ccc(-c2n[nH]c3ncc(-c4ccc5c(c4)CCN(C4CCCC4)CC5)cc23)c(F)c1 [Example 17, 2-{4-[5-(3-Cyclopentyl-2,3,4,5-tetrahydro-1H-3-benzazepin-7-yl)-1H-pyrazolo[3,4-b]pyridin-3-yl]-3-fluorophenyl}propan-2-ol] |
| < 0.1 µM | < 0.1 µM | C[C@@H]1CCCN1C1(C)CCc2ccc(-c3cnc4[nH]nc(-c5ccc(S(N)(=O)=O)cc5)c4c3)cc2CC1 (stereo partly drawn) [Example 95, 4-(5-(7-Methyl-7-((R)-2-methylpyrrolidin-1-yl)-6,7,8,9-tetrahydro-5H-benzo[7]annulen-2-yl)-1H-pyrazolo[3,4-b]pyridin-3-yl)benzenesulfonamide] |
| < 0.1 µM | < 0.1 µM | C[C@@H]1CCCN1C1(C)CCc2ccc(-c3cnc4[nH]nc(-c5ccc(C(=O)N6CCCC6)cc5)c4c3)cc2CC1 (stereo partly drawn) [Example 118, (2R)-2-Methyl-1-(7-methyl-2-{3-[4-(pyrrolidine-1-carbonyl)phenyl]-1H-pyrazolo[3,4-b]pyridin-5-yl}-6,7,8,9-tetrahydro-5H-benzo[7]annulen-7-yl)pyrrolidine] |
| < 0.1 µM | < 0.1 µM | CN(C)C(=O)c1ccc(-c2n[nH]c3ncc(-c4ccc5c(c4)CC[C@@H](N4C6COCC4C6)CC5)cc23)cc1 [Example 125, N,N-Dimethyl-4-{5-[(7S)-7-{3-oxa-6-azabicyclo[3.1.1]heptan-6-yl}-6,7,8,9-tetrahydro-5H-benzo[7]annulen-2-yl]-2H-pyrazolo[3,4-b]pyridin-3-yl}benzamide] |
| < 0.1 µM | < 0.1 µM | Cc1cc(-c2n[nH]c3ncc(-c4ccc5c(c4)CC[C@@H](N4CCCC4)CC5)cc23)cc(C)c1C(N)=O [Example 49, 2,6-Dimethyl-4-{5-[(7S)-7-(pyrrolidin-1-yl)-6,7,8,9-tetrahydro-5H-benzo[7]annulen-2-yl]-1H-pyrazolo[3,4-b]pyridin-3-yl}benzamide] |
| < 0.1 µM | < 0.1 µM | CC(C)(C)S(=O)(=O)c1ccc(-c2n[nH]c3ncc(-c4ccc5c(c4)CC[C@@H](N4C6COCC4C6)CC5)cc23)cc1 [Example 124, 6-[(7S)-2-{3-[4-(2-methylpropane-2-sulfonyl)phenyl]-2H-pyrazolo[3,4-b]pyridin-5-yl}-6,7,8,9-tetrahydro-5H-benzo[7]annulen-7-yl]-3-oxa-6-azabicyclo[3.1.1]heptane] |
| < 0.1 µM | < 0.1 µM | CCS(=O)(=O)c1ccc(-c2n[nH]c3ncc(-c4ccc5c(c4)CC[C@@H](N4CCCC4)CC5)cc23)cc1 [Example 41, (S)-3-(4-(Ethylsulfonyl)phenyl)-5-(7-(pyrrolidin-1-yl)-6,7,8,9-tetrahydro-5H-benzo[7]annulen-2-yl)-1H-pyrazolo[3,4-b]pyridine] |
| < 0.1 µM | < 0.1 µM | CC(C)(O)c1ccc(-c2n[nH]c3ncc(-c4ccc5c(c4)CCC(N4CCC[C@@H]4CO)CC5)cc23)cc1Cl (stereo partly drawn) [Example 21, 2-[2-Chloro-4-(5-{7-[(2R)-2-(hydroxymethyl)pyrrolidin-1-yl]-6,7,8,9-tetrahydro-5H-benzo[7]annulen-2-yl}-1H-pyrazolo[3,4-b]pyridin-3-yl)phenyl]propan-2-ol] |
